In patent publication US20190284635A1, “METHOD FOR THE PROGNOSIS AND/OR TREATMENT OF ACUTE PROMYELOCYTIC LEUKEMIA” (EPI-C S.R.L., priority 2016, published 2019):

Tests used:
[1] = Mouse terminal IP PK study; format: in vivo, male CD1 mice; settings: plasma, 2 mg/kg
Procedure: (§1) Compound was administered both intravenously and intraperitoneally to mice. Blood samples were collected at 8 time points over 24 hr and plasma analysed by LC-MS/MS to determine the concentration of compound.
(§2) The plasma time concentration profile was calculated with the main PK parameters (Co, AUClast, t, VD, and CL).
For ip dosing. After formulation assessment, MC2884 was dissolved at 0.2 mg/mL. This provided a dose of 2 mg free base material/kg when administered ip in a 10 mL/kg dosing volume.
(§3) Compound MC2884 was given ip at a dose of 2 mg/kg to a group of 24 normally fed male CD1 mice in a 10 mL/kg injection volume. Terminal blood samples (>230 μL) were taken under CO2 from groups of 3 mice at each of 8 time-points post dose (0.083, 0.25, 0.5, 1, 2, 4, 8 and 24 h) and placed into heparinized tubes. Samples were placed on ice for no longer than 30 min before centrifugation (10,000 rpm×3 min). Plasma samples (>100 μL) were collected into fresh tubes and frozen on dry ice. All samples were stored at −20° C. Number of plasma samples=24. FIG. 17-18 display results for IV-IP administration of MC2884 in normal mice

NB4 cells [2] = test: Cell death induction in NB4 cells; format: cell-based, human; settings: for cytotoxicity at 3 µM: Homo sapiens, NB-4, 30 h; for % Cell death NB4 cells: 3 μM, 30 h
Procedure: (§4) For cell cycle analyses, the cells were plated (2×10^5 cells/mL) and after stimulation (performed as indicated in the text) were harvested, centrifuged at 1200 rpm for 5 minutes and resuspended in 500 μL of a hypotonic solution containing 1×PBS, Sodium Citrate 0.1%, 0.1% NP-40, RNAase A and […] Propidium Iodide (PI) (a dye that intercalates between the DNA bases, marking the DNA content in the cells and emitting a fluorescent signal that enables the analysis). After 30′ at room temperature (RT) in the dark, samples were acquired by FACS-Calibur (BD Bioscences, San Jose, Calif., USA) using CellQuest software (BD Biosciences). The percentage in different phases of the cell cycle was determined by ModFit LT V3 software (Verity). All experiments were performed in triplicate.
When tested in leukemia NB4 cells at 3 μM for 30 h, MC2884 induced 52.1% cell death. Some MC2884 analogues have been tested to obtain SAR data (Table 8).

[3] = Stability of MC2884 in cell culture medium (DMEM, RP-HPLC); format: physicochemical; settings: 50 μM in DMEM
Procedure: The compound was dissolved in DMEM at 50 μM and its concentration was measured by RP-HPLC using a ONYX 50×2 mm ID C18 column operating at 600 μL/min. The gradient applied was from 1% solvent B to 70% solvent B in 10 minutes. Solvent A was water with added 0.1% trifluoroacetic acid (TFA) and solvent B was acetonitrile with added 0.1% TFA. The eluate was monitored using a diode array detector with wavelengths set between 200-320 nm. The compound was eluted at 11.1 min. Peak integration was carried out on the chromatogram extracted at […], which is one of the compound absorbance maxima. A calibration curve was built by injecting solutions of the compound in DMSO at concentrations ranging between 1.5 μM and 200 μM. After incubation in DMEM compound concentration was determined at time points ranging between 0 and 72 hrs. As shown, half of compound was degraded after 10h. At 72 hrs it was fully degraded under these conditions.

CYP3A4 = biological target: T1, CYP3A4 (Homo sapiens, UniProt P08684); test: Cytochrome P450 inhibition, CYP3A4, human liver microsomes; format: in vitro ADME; settings: at 25 μM, probe midazolam
T1 construct: from tissue; host or cells: human liver microsomes
T1 sequence (P08684 whole entry): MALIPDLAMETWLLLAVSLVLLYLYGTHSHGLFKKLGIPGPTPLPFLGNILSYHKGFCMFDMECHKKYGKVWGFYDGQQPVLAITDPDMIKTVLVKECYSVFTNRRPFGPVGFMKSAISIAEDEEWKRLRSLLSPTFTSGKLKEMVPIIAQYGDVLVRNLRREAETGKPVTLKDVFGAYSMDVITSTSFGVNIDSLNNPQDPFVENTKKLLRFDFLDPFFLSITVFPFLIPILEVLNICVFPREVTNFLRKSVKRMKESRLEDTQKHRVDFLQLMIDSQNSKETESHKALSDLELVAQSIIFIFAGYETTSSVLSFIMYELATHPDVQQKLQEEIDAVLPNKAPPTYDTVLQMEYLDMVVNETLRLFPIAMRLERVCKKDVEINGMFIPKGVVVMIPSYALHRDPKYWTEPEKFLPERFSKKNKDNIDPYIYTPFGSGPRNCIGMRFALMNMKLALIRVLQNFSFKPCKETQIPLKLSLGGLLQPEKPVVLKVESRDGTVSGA

[4] = tested on: immortalized non-cancer cell systems; test: Cytotoxicity on immortalized non-cancer cells; settings: at the dose effective on cancer cells
Procedure: Colorimetric exclusion: cells (2×10^5 cells/mL) were plated in multiwells and in triplicate.

[5] = Mouse terminal IV PK study; format: in vivo; settings: 2 mg/kg, male CD1 mice, plasma
Procedure: as §1, §2
For iv dosing. Compound was dissolved at 0.4 mg/mL. This provided a dose of 2 mg free base material/kg when administered iv in a 5 mL/kg dosing volume.
as §3, with “given iv via the lateral tail vein” for “given ip”, “a 5” for “a 10”, “ice.” for “ice. All samples were stored at −20° C.”, “samples=24. Consistent IV profiles were obtained, with little variability across the time-points (the average profile is shown in the second spreadsheet). […]” for “samples=24.”, “normal mice.” for “normal mice”

SHSY5Y cells = test: Cell death induction in SHSY5Y cells; format: cell-based; settings: 48 h; for cytotoxicity at 3 µM: Homo sapiens, SH-SY5Y; for cell death induction in SHSY5Y cells, in words, relative to MC2884: 3 μM
Procedure: as §4
When tested in neuroblastoma SHSY5Y cells at 3 μM for 48 h, MC2884 and its analogues furnished similar trend of death induction as in NB4 cells (Table 7). In general, the SHSY5Y cell line is less sensitive to the tested molecules than NB4 cells.

NB4 cells [6] = test: Combination of ABT-737 with MC2884, pre-G1 cells; format: cell-based, human; settings: ABT-737 with addition of MC2884 at concentrations that alone induced little apoptosis
Procedure: For cell cycle analyses, the cells were plated (2×10^5 cells/mL) and after stimulation (performed as indicated in the text) were harvested, centrifuged at 1200 rpm for 5 minutes and resuspended in 500 μL of a hypotonic solution containing 1×PBS, Sodium Citrate 0.1%, 0.1% NP-40, RNAase A and 50 mg/mL Propidium Iodide (PI) (a dye that intercalates between the DNA bases, marking the DNA content in the cells and emitting a fluorescent signal that enables the analysis). After 30' at room temperature (RT) in the dark, samples were acquired by FACS-Calibur (BD Bioscences, San Jose, Calif., USA) using CellQuest software (BD Biosciences). The percentage in different phases of the cell cycle was determined by ModFit LT V3 software (Verity). All experiments were performed in triplicate.

[7] = tested on: acetyl-H3K9-14, H3K27me3/2, EZH2 in NB4 cells; test: Western blot of histone marks and EZH2 in NB4 cells; format: cell-based, human
Procedure: The procedures were performed as described in (31,34). Primary antibodies used were: H3K27me3 (Abcam); H3K9-14ac (Millipore); H3K27ac, EZH2, PARP, TRAIL, RIP (Abcam); BID, BAX, BCL2 (Cell Signaling); BCL-XL (BD Biosciences); ERKs (Santa Cruz) and α-tubulin (Sigma) were used to normalize the total protein extracts, while H1 (Abcam) to normalize histone extracts.

CBP = CBP (Homo sapiens, UniProt Q92793); test: HAT in vitro assay, CBP; format: biochemical; settings: substrate Histone H3; 3 μM Acetyl-CoA; 10-dose IC50 mode; read-out: IC50 CBP acetyltransferase
CBP, sequence (Q92793 whole entry): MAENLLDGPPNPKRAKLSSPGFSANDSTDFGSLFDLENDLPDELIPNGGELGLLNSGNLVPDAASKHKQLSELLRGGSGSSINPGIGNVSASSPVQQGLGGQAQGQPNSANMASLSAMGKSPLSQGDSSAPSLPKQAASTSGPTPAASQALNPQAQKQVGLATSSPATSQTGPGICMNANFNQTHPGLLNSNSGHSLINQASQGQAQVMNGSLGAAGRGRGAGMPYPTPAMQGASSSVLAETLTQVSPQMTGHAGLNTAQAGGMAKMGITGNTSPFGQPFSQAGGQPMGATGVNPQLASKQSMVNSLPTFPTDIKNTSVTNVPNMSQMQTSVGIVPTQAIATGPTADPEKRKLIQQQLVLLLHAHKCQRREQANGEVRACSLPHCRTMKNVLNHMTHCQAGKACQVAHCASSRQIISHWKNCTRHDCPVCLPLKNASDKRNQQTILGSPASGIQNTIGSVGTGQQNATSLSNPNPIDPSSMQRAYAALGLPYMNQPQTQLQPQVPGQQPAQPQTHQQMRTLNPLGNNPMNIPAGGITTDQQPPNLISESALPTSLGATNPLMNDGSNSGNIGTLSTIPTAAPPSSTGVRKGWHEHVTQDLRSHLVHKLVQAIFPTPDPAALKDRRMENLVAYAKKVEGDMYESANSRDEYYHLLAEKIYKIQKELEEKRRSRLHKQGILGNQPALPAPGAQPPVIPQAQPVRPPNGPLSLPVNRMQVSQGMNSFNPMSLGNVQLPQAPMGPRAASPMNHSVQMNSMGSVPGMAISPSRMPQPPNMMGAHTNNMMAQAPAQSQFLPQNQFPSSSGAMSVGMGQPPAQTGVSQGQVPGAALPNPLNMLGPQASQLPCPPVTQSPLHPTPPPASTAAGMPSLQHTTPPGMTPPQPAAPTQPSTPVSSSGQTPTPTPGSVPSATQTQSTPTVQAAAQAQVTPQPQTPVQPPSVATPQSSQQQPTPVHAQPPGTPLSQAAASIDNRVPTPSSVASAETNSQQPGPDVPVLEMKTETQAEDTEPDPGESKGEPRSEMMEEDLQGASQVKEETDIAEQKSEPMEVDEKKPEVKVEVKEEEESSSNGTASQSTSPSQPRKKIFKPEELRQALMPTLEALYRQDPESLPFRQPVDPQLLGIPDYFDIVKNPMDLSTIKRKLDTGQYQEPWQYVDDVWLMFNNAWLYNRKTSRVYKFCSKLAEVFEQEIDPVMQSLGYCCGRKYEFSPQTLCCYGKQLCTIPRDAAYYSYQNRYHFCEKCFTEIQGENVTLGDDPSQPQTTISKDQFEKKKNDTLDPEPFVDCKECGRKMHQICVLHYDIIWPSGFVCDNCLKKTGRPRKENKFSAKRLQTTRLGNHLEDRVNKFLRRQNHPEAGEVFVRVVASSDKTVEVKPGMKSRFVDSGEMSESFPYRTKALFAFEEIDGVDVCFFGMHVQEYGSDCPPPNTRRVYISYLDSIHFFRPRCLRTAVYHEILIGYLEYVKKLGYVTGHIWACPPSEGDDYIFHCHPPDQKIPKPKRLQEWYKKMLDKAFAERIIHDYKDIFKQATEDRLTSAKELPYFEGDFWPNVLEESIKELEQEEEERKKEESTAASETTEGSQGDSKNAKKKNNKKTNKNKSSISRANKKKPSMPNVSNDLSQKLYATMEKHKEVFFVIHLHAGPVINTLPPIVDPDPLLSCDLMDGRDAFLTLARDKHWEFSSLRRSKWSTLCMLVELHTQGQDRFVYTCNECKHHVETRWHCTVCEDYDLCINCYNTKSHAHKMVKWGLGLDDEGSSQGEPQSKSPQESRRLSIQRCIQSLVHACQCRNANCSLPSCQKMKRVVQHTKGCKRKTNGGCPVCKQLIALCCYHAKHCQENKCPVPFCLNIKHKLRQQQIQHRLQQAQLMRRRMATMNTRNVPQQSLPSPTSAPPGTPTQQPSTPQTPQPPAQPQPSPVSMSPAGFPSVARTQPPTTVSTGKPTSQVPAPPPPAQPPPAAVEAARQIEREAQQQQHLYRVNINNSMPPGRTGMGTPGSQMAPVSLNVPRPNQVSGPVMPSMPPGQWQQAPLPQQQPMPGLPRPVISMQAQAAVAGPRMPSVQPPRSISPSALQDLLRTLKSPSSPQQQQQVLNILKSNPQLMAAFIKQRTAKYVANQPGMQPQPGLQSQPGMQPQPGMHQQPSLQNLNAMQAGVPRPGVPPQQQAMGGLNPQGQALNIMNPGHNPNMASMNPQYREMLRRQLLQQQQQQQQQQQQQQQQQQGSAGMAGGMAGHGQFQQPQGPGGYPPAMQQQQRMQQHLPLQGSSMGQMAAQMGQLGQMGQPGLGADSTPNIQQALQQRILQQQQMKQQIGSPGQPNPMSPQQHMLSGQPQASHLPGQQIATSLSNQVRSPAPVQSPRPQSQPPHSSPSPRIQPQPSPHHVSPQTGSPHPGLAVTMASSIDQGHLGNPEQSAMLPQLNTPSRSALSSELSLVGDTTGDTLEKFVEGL
Procedure: (§5) MC2884 activity was also tested in vitro and IC50 was calculated as indicated in the scheme. […] Reactions were carried out at 3 μM Acetyl-CoA. Empty cells indicate no inhibition or compound activity that could not be fit to an IC50 curve.

KAT5 = KAT5 (Homo sapiens, UniProt Q92993); test: HAT in vitro assay, KAT5; format: biochemical; settings: substrate Histone H2A; 3 μM Acetyl-CoA; 10-dose IC50 mode; read-out: IC50 KAT5 acetyltransferase
KAT5, sequence (Q92993 whole entry): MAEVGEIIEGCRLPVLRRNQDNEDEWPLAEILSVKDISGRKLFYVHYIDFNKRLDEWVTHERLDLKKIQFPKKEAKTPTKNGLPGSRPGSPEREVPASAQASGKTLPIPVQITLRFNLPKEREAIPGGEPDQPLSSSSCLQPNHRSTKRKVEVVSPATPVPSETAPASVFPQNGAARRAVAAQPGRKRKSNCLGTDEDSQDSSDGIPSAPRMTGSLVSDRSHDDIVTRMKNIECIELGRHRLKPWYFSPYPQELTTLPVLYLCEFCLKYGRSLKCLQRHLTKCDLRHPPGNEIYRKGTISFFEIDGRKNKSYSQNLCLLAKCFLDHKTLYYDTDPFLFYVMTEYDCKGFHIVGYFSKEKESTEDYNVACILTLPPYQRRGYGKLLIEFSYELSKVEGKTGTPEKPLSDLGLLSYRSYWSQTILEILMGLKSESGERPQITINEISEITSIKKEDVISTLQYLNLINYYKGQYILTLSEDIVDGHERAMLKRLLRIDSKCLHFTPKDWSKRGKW
Procedure: as §5

GCN5 = GCN5 (Homo sapiens, UniProt Q92830); test: HAT in vitro assay, GCN5; format: biochemical; settings: substrate Histone H3; 3 μM Acetyl-CoA; 10-dose IC50 mode; read-out: IC50 GCN5 acetyltransferase
GCN5, sequence (Q92830 whole entry): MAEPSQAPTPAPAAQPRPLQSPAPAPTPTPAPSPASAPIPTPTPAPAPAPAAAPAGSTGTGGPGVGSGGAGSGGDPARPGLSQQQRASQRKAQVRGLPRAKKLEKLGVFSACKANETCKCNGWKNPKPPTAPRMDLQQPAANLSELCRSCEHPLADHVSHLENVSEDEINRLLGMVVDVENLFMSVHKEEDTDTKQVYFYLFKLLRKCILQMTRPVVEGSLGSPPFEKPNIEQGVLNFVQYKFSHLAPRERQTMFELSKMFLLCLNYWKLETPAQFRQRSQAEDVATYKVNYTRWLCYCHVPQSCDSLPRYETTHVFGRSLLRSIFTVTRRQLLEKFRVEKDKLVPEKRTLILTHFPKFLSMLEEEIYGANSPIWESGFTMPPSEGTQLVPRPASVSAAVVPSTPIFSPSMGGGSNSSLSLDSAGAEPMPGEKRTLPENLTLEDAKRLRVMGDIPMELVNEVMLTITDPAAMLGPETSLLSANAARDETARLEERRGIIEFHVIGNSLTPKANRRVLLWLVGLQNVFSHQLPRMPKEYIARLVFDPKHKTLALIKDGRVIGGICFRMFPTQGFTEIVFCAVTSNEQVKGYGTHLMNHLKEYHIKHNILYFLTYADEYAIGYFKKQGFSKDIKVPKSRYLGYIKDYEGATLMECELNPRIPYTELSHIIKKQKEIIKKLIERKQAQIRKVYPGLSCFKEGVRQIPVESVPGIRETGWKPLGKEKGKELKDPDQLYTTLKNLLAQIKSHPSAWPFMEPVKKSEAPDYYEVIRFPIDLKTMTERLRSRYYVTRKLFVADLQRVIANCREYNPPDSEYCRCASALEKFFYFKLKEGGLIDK
Procedure: as §5

pCAF = pCAF (Homo sapiens, UniProt Q92831); test: HAT in vitro assay, pCAF; format: biochemical; settings: substrate Histone H3; 3 μM Acetyl-CoA; 10-dose IC50 mode; read-out: IC50 pCAF acetyltransferase
pCAF, sequence (Q92831 whole entry): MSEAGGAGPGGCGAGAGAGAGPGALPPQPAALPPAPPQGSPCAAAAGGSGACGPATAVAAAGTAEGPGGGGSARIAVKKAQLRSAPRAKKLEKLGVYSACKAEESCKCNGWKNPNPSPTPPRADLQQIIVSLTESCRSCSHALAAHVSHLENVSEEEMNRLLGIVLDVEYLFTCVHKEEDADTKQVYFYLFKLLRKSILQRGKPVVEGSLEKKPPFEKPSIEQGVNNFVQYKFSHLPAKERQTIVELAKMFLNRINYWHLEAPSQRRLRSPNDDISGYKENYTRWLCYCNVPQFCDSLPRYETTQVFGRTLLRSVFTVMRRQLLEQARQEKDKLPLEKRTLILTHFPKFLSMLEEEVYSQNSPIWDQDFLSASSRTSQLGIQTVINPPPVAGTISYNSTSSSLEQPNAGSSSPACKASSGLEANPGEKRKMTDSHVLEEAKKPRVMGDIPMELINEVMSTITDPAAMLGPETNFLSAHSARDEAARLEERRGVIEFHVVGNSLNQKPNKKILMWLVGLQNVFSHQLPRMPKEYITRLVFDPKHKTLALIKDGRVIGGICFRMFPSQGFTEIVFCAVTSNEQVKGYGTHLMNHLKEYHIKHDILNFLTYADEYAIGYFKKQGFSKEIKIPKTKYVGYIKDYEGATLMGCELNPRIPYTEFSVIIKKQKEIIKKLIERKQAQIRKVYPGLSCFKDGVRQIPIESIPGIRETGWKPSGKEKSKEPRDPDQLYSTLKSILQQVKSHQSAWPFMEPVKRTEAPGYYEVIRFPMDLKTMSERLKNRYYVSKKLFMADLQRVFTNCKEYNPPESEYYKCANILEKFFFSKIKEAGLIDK
Procedure: as §5

[8] = tested on: APL-Rs (pt#7 and 8) blasts; test: Cell death in ex vivo APL-R blasts; format: cell-based, human; settings: pt#7 and 8, 24 h
Procedure: Blasts cells were purified by the Ficoll-Hypaque gradient separation method (GE Healthcare). RNA was obtained by using TRIzol (Life Technologies) according to the manufacturer's recommendations. Isolation of genomic DNA has complied the FlexiGene DNA protocol (Qiagen).
To further strengthen our findings in primary human cells, apoptosis was evaluated in 6 AML patient blasts (FIG. 10C).

Row | Compound | cytotoxicity at 3 µM (NB4 cells [2]) [%] | cytotoxicity at 3 µM (SHSY5Y cells) [%] | also measured
1 | O=C1/C(=C/c2cccc(Br)c2)CN(Cc2ccccc2)C/C1=C\c1cccc(Br)c1 [MC2884, 1-benzyl-3,5-bis(3-bromobenzylidene)piperidin-4-one] | 52.1 |  | bioavailability ([1]; male, CD1, mouse, dose route IP, time frame 0-inf): 140%; AUC ([1]; mouse, ip, male CD1 mice): 18400 ng·h/mL; time for total degradation in culture medium [3]: 72 h; CYP3A4 % inhibition (CYP3A4): 45%; cytotoxicity on non-cancer cells [4]: low cytotoxicity; average half-life [5]: 4.58 h; AUC ([5]; mouse): 13300 ng·h/mL
2 | O=C1/C(=C/c2cccc(Br)c2)CSC/C1=C\c1cccc(Br)c1 [MC2913, 3,5-bis(3-bromobenzylidene)dihydro-2H-thiopyran-4(3H)-one] | 52.7 | 23.9 | 
3 | O=C1/C(=C/c2ccccc2Br)CN(Cc2ccccc2)C/C1=C\c1ccccc1Br [MC2908, 1-benzyl-3,5-bis(2-bromobenzylidene)piperidin-4-one] | 30.3 | 9.2 | 
4 | O=C(/C=C/c1ccc(Br)cc1)/C=C/c1ccc(Br)cc1 [MC2886, (1E,4E)-1,5-bis(4-bromophenyl)penta-1,4-dien-3-one] | 0.56 | 1.2 | 
5 | O=C1/C(=C/c2cccc(Br)c2)CN(CCCc2ccccc2)C/C1=C\c1cccc(Br)c1 [MC3272, 3,5-bis(3-bromobenzyliden)-1-(3-phenylpropyl) piperidin-4-one] | 29.2 | 7 | 
6 | CN(C)CC[C@H](CSc1ccccc1)Nc1ccc(S(=O)(=O)NC(=O)c2ccc(N3CCN(Cc4ccccc4-c4ccc(Cl)cc4)CC3)cc2)cc1[N+](=O)[O-] [ABT-737] |  |  | cell death with ABT-737 plus MC2884 (NB4 cells [6]): up to 60%
7 | O=C1/C(=C/c2ccc(Br)cc2)CN(Cc2ccccc2)C/C1=C\c1ccc(Br)cc1 [MC2909, 1-benzyl-3,5-bis(4-bromobenzylidene)piperidin-4-one] | 8.8 | 4.7 | modulation of histone acetylation and EZH2 deregulation [7]: unable to modulate; cell death induction in SHSY5Y cells, in words, relative to MC2884 (SHSY5Y cells): less potent or not active
8 | O=C1/C(=C/c2cccc(Br)c2)CN(CC(=O)c2ccccc2)C/C1=C\c1cccc(Br)c1 [MC3207, 3,5-bis(3-bromobenzylidene)-1-(2-oxo-2-phenylethyl)piperidin-4-one] | 38 | 7 | % Cell death NB4 cells (NB4 cells [2]): 38.0%
9 | CN1C/C(=C\c2cccc(Br)c2)C(=O)/C(=C/c2cccc(Br)c2)C1 [MC2914, 3,5-bis(3-bromobenzylidene)-1-methylpiperidin-4-one] | 36 | 9 | % Cell death NB4 cells (NB4 cells [2]): 36.0%; cell death induction in SHSY5Y cells, in words, relative to MC2884 (SHSY5Y cells): reduced the potency
10 | O=C1/C(=C/c2cccc(Br)c2)CN(C(=O)c2ccccc2)C/C1=C\c1cccc(Br)c1 [MC3146, 1-benzoyl-3,5-bis(3-bromobenzylidene)piperidin-4-one] | 13.2 | 5.6 | 
11 | O=C1/C(=C/c2cccc(Br)c2)CCC/C1=C\c1cccc(Br)c1 [MC2911, 2,6-bis((E)-3-bromobenzylidene)cyclohexan-1-one] | 0.76 | 0.8 | 
12 | CC1=NN(c2ccc(C(=O)O)cc2)C(=O)/C1=C\c1ccc(-c2cc(C)c(C)cc2[N+](=O)[O-])o1 [C646] |  |  | IC50 (CBP): 0.0787 µM; IC50 (KAT5): 20.4 µM
13 | O=C1/C(=C/c2cccc(Br)c2)COC/C1=C\c1cccc(Br)c1 [MC2912, 3,5-bis(3-bromobenzylidene)dihydro-2H-pyran-4(3H)-one] | 4.1 | 1 | 
14 | O=C1/C(=C/c2ccc(O)cc2Br)CN(Cc2ccccc2)C/C1=C\c1ccc(O)cc1Br [MC3395, 1-benzyl-3,5-bis((E)-2-bromo-4-hydroxybenzylidene)piperidin-4-one] | 0.53 | 1 | 
15 | O=C1/C(=C/c2cc(Br)cc(Br)c2)CN(Cc2ccccc2)C/C1=C\c1cc(Br)cc(Br)c1 [MC2910, 1-benzyl-3,5-bis(3,5-dibromobenzylidene)piperidin-4-one] | 4.2 | 2.4 | 
16 | O=C1/C(=C/c2cccc(Br)c2)CN(CCc2ccccc2)C/C1=C\c1cccc(Br)c1 [MC3269, 3,5-bis(3-bromobenzylidene)-1-phenethylpiperidin-4-one] | 62.5 | 19.2 | cell death induction in SHSY5Y cells, in words, relative to MC2884 (SHSY5Y cells): same potency as MC2884
17 | CCCCCCCCCCCCCCCc1cccc(O)c1C(=O)O [Anacardic Acid] |  |  | IC50 (GCN5): 38.6 µM; IC50 (pCAF): 38.8 µM
18 | CC1=C(/C=C/C(C)=C/C=C/C(C)=C/C(=O)O)C(C)(C)CCC1 [ATRA, All Trans Retinoic Acid] |  |  | apoptosis in ex vivo APL-R blasts [8]: did not undergo efficient apoptosis
19 | O=C1/C(=C/c2cccc(Br)c2)CN(C(=O)CCc2ccccc2)C/C1=C\c1cccc(Br)c1 [MC3187, 3,5-bis(3-bromobenzylidene)-1-(3-phenylpropanoyl) piperidin-4-one] | 28.9 | 19.9 | cell death induction in SHSY5Y cells, in words, relative to MC2884 (SHSY5Y cells): slightly more potent than MC2884
